The values below come from patent US20260347373A1, “HETEROCYCLIC COMPOUNDS, COMPOSITIONS THEREOF, AND METHODS OF TREATMENT THEREWITH” (BeOne Medicines I GmbH, priority 2023, published 2026).

One assay deals with KRAS G12D (Homo sapiens, UniProt P01116, G12D). Put plainly: KRAS G12D Probe Displacement Assay (TR-FRET, GDP-loaded). In kind it is binding. Conditions: KRAS G12D, read-out: KRAS^G12D Probe Displacement Assay IC50. From the text: (§1) The synthetic routes of probe 1 and 2, which have been disclosed in PCT/CN2022/070676, are hereby incorporated herein.
A general note: In TR-FRET formats the signal depends on donor and acceptor labels being close together.

The target in a further assay is WT KRAS (Homo sapiens, UniProt P01116). Put plainly: KRAS WT Probe Displacement Assay (TR-FRET, GDP-loaded). Conditions: KRAS WT, read-out: KRAS^WT Probe Displacement Assay IC50. Format: binding.
Text: as §1

Chain of KRAS G12D (P01116 1-188 isoform P01116-2 G12D): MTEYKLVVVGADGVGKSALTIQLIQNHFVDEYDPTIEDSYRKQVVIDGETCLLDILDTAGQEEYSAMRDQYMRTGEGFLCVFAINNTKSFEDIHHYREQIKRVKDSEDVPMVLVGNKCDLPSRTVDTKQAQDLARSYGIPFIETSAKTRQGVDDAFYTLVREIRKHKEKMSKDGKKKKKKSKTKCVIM
Chain of WT KRAS (P01116 1-188 isoform P01116-2): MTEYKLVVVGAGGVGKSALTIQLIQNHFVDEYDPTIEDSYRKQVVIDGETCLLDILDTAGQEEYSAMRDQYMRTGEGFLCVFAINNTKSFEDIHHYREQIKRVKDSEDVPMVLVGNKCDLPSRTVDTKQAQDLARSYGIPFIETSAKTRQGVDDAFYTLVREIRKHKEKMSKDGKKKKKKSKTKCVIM

Consider `Cc1cc(N)cc(-c2nc3c4c(nc(OCC5(CN6C[C@H]7C[C@H]7[C@H]6C)CC5)nc4c2F)N2C[C@H]4CC[C@H](N4)[C@H]2CCO3)c1C(F)(F)F` [Example 172, 3-((6aR,7S,10R)-1-fluoro-13-((1-(((1R,2R,5S)-2-methyl-3-azabicyclo[3.1.0]hexan-3-yl)methyl)cyclopropyl)methoxy)-5,6,6a,7,8,9,10,11-octahydro-4-oxa-3,11a,12,14,15-pentaaza-7,10-methanocyclohepta[4,5]cycloocta[1,2,3-de]naphthalen-2-yl)-5-methyl-4-(trifluoromethyl)aniline], for which the IC50 on KRAS G12D was under 0.3 nM; at WT KRAS, 3 to 1000 nM.
Consider `COC1CCN(CC2(COc3nc4c5c(nc(-c6cc(N)cc(C)c6C(F)(F)F)c(F)c5n3)OCC[C@@H]3[C@@H]5CC[C@H](CN43)N5)CC2)CC1` [Example 110, 3-((6aR,7S,10R)-1-fluoro-13-((1-((4-methoxypiperidin-1-yl)methyl)cyclopropyl)methoxy)-5,6,6a,7,8,9,10,11-octahydro-4-oxa-3,11a,12,14,15-pentaaza-7,10-methanocyclohepta[4,5]cycloocta[1,2,3-de]naphthalen-2-yl)-5-methyl-4-(trifluoromethyl)aniline], for which the IC50 on KRAS G12D was under 0.3 nM; on WT KRAS, 3 to 1000 nM.
As to `Cc1cc(N)cc(-c2nc3c4c(nc(O[C@@H](C)[C@@H]5CC6(CC6)CN5C)nc4c2F)N2C[C@H]4CC[C@H](N4)[C@H]2CCO3)c1C(F)(F)F` [Example 143, 3-((6aR,7S,10R)-1-fluoro-13-((S)-1-((S)-5-methyl-5-azaspiro[2.4]heptan-6-yl)ethoxy)-5,6,6a,7,8,9,10,11-octahydro-4-oxa-3,11a,12,14,15-pentaaza[7,10]methanocyclohepta [4,5]cycloocta[1,2,3-de]naphthalen-2-yl)-5-methyl-4-(trifluoromethyl)aniline], the results for the IC50 on KRAS G12D and on WT KRAS were under 0.3 nM and 3 to 1000 nM, respectively.
Turning to `Cc1cc(N)cc(-c2nc3c4c(nc(OC[C@@]56C[C@@H](F)CN5C[C@@]5(CC5(F)F)C6)nc4c2F)N2C[C@H]4CC[C@H](N4)[C@H]2CCO3)c1C(F)(F)F` [Example 199, 3-((6aR,7S,10R)-1-fluoro-13-(((1S,6′R,7a′R)-2,2,6′-trifluorodihydro-1′H,3′H-spiro[cyclopropane-1,2′-pyrrolizin]-7a′(5′H)-yl)methoxy)-5,6,6a,7,8,9,10,11-octahydro-4-oxa-3,11a,12,14,15-pentaaza[7,10]methanocyclohepta[4,5]cycloocta[1,2,3-de]naphthalen-2-yl)-5-methyl-4-(trifluoromethyl)aniline], the IC50 was under 0.3 nM at KRAS G12D and 0.3 to 3 nM at WT KRAS.
On to `Cc1cc(N)cc(-c2nc3c4c(nc(OCC5(CN6C[C@@H]7C[C@@H]7[C@H]6CO)CC5)nc4c2F)N2C[C@H]4CC[C@H](N4)[C@H]2CCO3)c1C(F)(F)F` [Example 97, ((1S,2S,5R)-3-((1-((((6aR,7S,10R)-2-(5-amino-3-methyl-2-(trifluoromethyl)phenyl)-1-fluoro-5,6,6a,7,8,9,10,11-octahydro-4-oxa-3,11a,12,14,15-pentaaza-7,10-methanocyclohepta [4,5]cycloocta,[1,2,3-de]naphthalen-13-yl)oxy)methyl)cyclopropyl)methyl)-3-azabicyclo [3.1.0]hexan-2-yl) methanol], for which the results for the IC50 at KRAS G12D and at WT KRAS were under 0.3 nM and 3 to 1000 nM, respectively.
In the same order, the values of `CO[C@H]1CN2C[C@H](F)C[C@]2(COc2nc3c4c(nc(-c5cc(N)cc(C)c5C(F)(F)F)c(F)c4n2)OCC[C@@H]2[C@@H]4CC[C@H](CN32)N4)C1` [Example 214, 3-((6aR,7S,10R)-1-fluoro-13-(((2R,6R,7aS)-2-fluoro-6-methoxytetrahydro-1H-pyrrolizin-7a(5H)-yl)methoxy)-5,6,6a,7,8,9,10,11-octahydro-4-oxa-3,11a,12,14,15-pentaaza-7,10-methanocyclohepta[4,5]cycloocta[1,2,3-de]naphthalen-2-yl)-5-methyl-4-(trifluoromethyl)aniline] are under 0.3 nM and 3 to 1000 nM.
In the case of `CCN1C[C@H](F)C[C@H]1[C@H](C)Oc1nc2c3c(nc(-c4cc(N)cc(C)c4C(F)(F)F)c(F)c3n1)OCC[C@@H]1[C@@H]3CC[C@H](CN21)N3` [Example 222, 3-((6aR,7S,10R)-13-((S)-1-((2S,4R)-1-ethyl-4-fluoropyrrolidin-2-yl)ethoxy)-1-fluoro-5,6,6a,7,8,9,10,11-octahydro-4-oxa-3,11a,12,14,15-pentaaza-7,10-methanocyclohepta[4,5]cycloocta[1,2,3-de]naphthalen-2-yl)-5-methyl-4-(trifluoromethyl)aniline], the values for the IC50 at KRAS G12D and on WT KRAS were under 0.3 nM and 3 to 1000 nM, respectively.
In the same order, the values of `Cc1cc(N)cc(-c2nc3c4c(nc(OCC5(C(C)N(C)C)CC5)nc4c2F)N2C[C@H]4CC[C@H](N4)[C@H]2CCO3)c1C(F)(F)F` (stereo partly drawn) [Example 135, 3-((6aR,7S,10R)-13-((1-(1-(dimethylamino)ethyl)cyclopropyl)methoxy)-1-fluoro-5,6,6a,7,8,9,10,11-octahydro-4-oxa-3,11a,12,14,15-pentaaza-7,10-methanocyclohepta[4,5]cycloocta [1,2,3-de]naphthalen-2-yl)-5-methyl-4-(trifluoromethyl)aniline] are under 0.3 nM and 3 to 1000 nM.
For `CO[C@H]1CN2C[C@H](F)C[C@]2(COc2nc3c4c(nc(-c5cc(N)cc(Cl)c5C(F)(F)F)c(F)c4n2)OCC[C@@H]2[C@@H]4CC[C@H](CN32)N4)C1` [Example 215, 3-chloro-5-((6aR,7S,10R)-1-fluoro-13-(((2R,6R,7aS)-2-fluoro-6-methoxytetrahydro-1H-pyrrolizin-7a(5H)-yl)methoxy)-5,6,6a,7,8,9,10,11-octahydro-4-oxa-3,11a,12,14,15-pentaaza-7,10-methanocyclohepta[4,5]cycloocta[1,2,3-de]naphthalen-2-yl)-4-(trifluoromethyl)aniline], the IC50 was under 0.3 nM at KRAS G12D and 3 to 1000 nM on WT KRAS.
In the same order, the values of `Cc1cc(N)cc(-c2nc3c4c(nc(OCC5(CN6CCOCC6)CC5)nc4c2F)N2C[C@H]4CC[C@H](N4)[C@H]2CCO3)c1C(F)(F)F` [Example 67, 3-((6aR,7S,10R)-1-fluoro-13-((1-(morpholinomethyl)cyclopropyl)methoxy)-5,6,6a,7,8,9,10,11-octahydro-4-oxa-3,11a,12,14,15-pentaaza-7,10-methanocyclohepta[4,5]cycloocta [1,2,3-de]naphthalen-2-yl)-5-methyl-4-(trifluoromethyl)aniline] are under 0.3 nM and 3 to 1000 nM.
Regarding `Nc1cc(Cl)c(C(F)(F)F)c(-c2nc3c4c(nc(OCC5(CN6CCC(=CF)CC6)CC5)nc4c2F)N2C[C@H]4CC[C@H](N4)[C@H]2CCO3)c1` [Example 156, 3-chloro-5-((6aR,7S,10R)-1-fluoro-13-((1-((4-(fluoromethylene)piperidin-1-yl)methyl)cyclopropyl)methoxy)-5,6,6a,7,8,9,10,11-octahydro-4-oxa-3,11a,12,14,15-pentaaza-7,10-methanocyclohepta[4,5]cycloocta [1,2,3-de]naphthalen-2-yl)-4-(trifluoromethyl)aniline], the results for the IC50 at KRAS G12D and on WT KRAS were under 0.3 nM and 0.3 to 3 nM, respectively.
Consider `Cc1cc(N)cc(-c2nc3c4c(nc(OCC5(CN6CCC7(CC6)CC7(F)F)CC5)nc4c2F)N2C[C@H]4CC[C@H](N4)[C@H]2CCO3)c1C(F)(F)F` [Example 158, 3-((6aR,7S,10R)-13-((1-((1,1-difluoro-6-azaspiro[2.5]octan-6-yl)methyl)cyclopropyl)methoxy)-1-fluoro-5,6,6a,7,8,9,10,11-octahydro-4-oxa-3,11a,12,14,15-pentaaza[7,10]methanocyclohepta[4,5]cycloocta[1,2,3-de]naphthalen-2-yl)-5-methyl-4-(trifluoromethyl)aniline], for which the IC50 at KRAS G12D was under 0.3 nM; at WT KRAS it was 0.3 to 3 nM.
In the same order, the values of `CO[C@H]1CCN(C)[C@@H]1C(C)Oc1nc2c3c(nc(-c4cc(N)cc(C)c4C(F)(F)F)c(F)c3n1)OCC[C@@H]1[C@@H]3CC[C@H](CN21)N3` (single isomer, unassigned) [Example 75] are under 0.3 nM and 3 to 1000 nM.
As to `Cc1cc(N)cc(-c2nc3c4c(nc(OC[C@@]56CCCN5CC(=C(F)F)C6)nc4c2F)N2C[C@H]4CC[C@H](N4)[C@H]2CCO3)c1C(F)(F)F` [Example 200, 3-((6aR,7S,10R)-13-(((S)-2-(difluoromethylene)tetrahydro-1H-pyrrolizin-7a(5H)-yl)methoxy)-1-fluoro-5,6,6a,7,8,9,10,11-octahydro-4-oxa-3,11a,12,14,15-pentaaza-7,10-methanocyclohepta[4,5]cycloocta[1,2,3-de]naphthalen-2-yl)-5-methyl-4-(trifluoromethyl)aniline], the values for the IC50 at KRAS G12D and on WT KRAS were under 0.3 nM and 3 to 1000 nM, respectively.
For `Cc1cc(N)cc(-c2nc3c4c(nc(OCC5(CN6CC7CC7C6)CC5)nc4c2F)N2C[C@H]4CC[C@H](N4)[C@H]2CCO3)c1C(F)(F)F` (stereo partly drawn) [Example 71, 3-((6aR,7S,10R)-13-((1-((3-azabicyclo[3.1.0]hexan-3-yl)methyl)cyclopropyl)methoxy)-1-fluoro-5,6,6a,7,8,9,10,11-octahydro-4-oxa-3,11a,12,14,15-pentaaza-7,10-methanocyclohepta[4,5]cycloocta [1,2,3-de]naphthalen-2-yl)-5-methyl-4-(trifluoromethyl)aniline] the same measures were under 0.3 nM and 3 to 1000 nM.
As for `Cc1cc(N)cc(-c2nc3c4c(nc(OCC5(CN6CCC7(COC7)C6)CC5)nc4c2F)N2C[C@H]4CC[C@H](N4)[C@H]2CCO3)c1C(F)(F)F` [Example 189, 3-((6aR,7S,10R)-13-((1-((2-oxa-6-azaspiro[3.4]octan-6-yl)methyl)cyclopropyl)methoxy)-1-fluoro-5,6,6a,7,8,9,10,11-octahydro-4-oxa-3,11a,12,14,15-pentaaza[7,10]methanocyclohepta[4,5]cycloocta[1,2,3-de]naphthalen-2-yl)-5-methyl-4-(trifluoromethyl)aniline], the IC50 was under 0.3 nM at KRAS G12D and 3 to 1000 nM at WT KRAS.

What is called IC50 is the midpoint of a concentration-inhibition curve.
